The source of these data is patent publication US12589169B2, “Compound and MRI contrast agent containing same” (KYUNGPOOK NATIONAL UNIVERSITY INDUSTRY-ACADEMIC COOPERATION …, priority 2020, dated 2026).

Data set [1] is described as follows: magnetic relaxation rates (MRI contrast effect). The format is physicochemical. The note with it: magnetic relaxation rate; field strength not stated for Table 1. On the procedure: In order to examine the MRI contrast effects of the compounds (Gd-suc, Gd-glu) and commercially available MRI contrast agents according to Examples of the present invention, the magnetic relaxation rates and lipophilicity were analyzed, and the results are shown in Table 1 below.
The magnetic relaxation rate (mM^−ls^−1) is a parameter indicating contrast efficiency per unit concentration, and in the case of a T1 contrast agent, the r2/r1 ratio is known to have a value of 0.5 to 1.5.

The test system of a further data set is Balb/C mice. The data set is described as follows: in vivo MRI contrast effect (abdominal T1 weighted images). The note with it: 0.1 mmol/kg, 4.7 T, FIG. 14. On the procedure:
The liver-specific T1 contrast effect of the compounds (Gd-suc, Gd-glu) according to embodiments of the present invention and Primovist, a commercially available liver contrast agent, was evaluated in small animals (Balb/C mice, male, 5 w, 25 g, 0.1 mmol/kg) and confirmed through abdominal T1 weighted images (Bruker, 4.7 T), and the results are shown in FIGS. 12 to 15.

For another data set, the system named is AML12 cell line. Put plainly: in vitro cell-viability test (CCK method). The note with it: AML12 normal hepatocytes, 24 hours; FIG. 16. The format is cell-based. As for the experimental part: In order to confirm the presence or absence of cytotoxicity in normal hepatocytes, Gd-suc (i.e., a compound according to an embodiment of the present invention) and Primovist and Multihance (i.e., commercially available liver contrast agents) were treated on the AML12 cell line at various concentrations, and cell viability after 24 hours was analyzed by a known CCK method, and the results are shown in FIG. 16.

Each structure is given as a SMILES string.

Consider `O=C([O-])CN1CCN(CC(=O)[O-])CCN([C@H](CO)[C@H](O)CO)CCN(CC(=O)[O-])CC1.[Gd+3]` (racemic) [Gadovist], for which, in data set [1], the r1 is reported as 4.12 ± 0.028 mM^−ls^−1 and the r2 worked out at 4.60 ± 0.025 mM^−ls^−1.

In data set [1], `CNC[C@H](O)[C@@H](O)[C@H](O)[C@H](O)CO.O=C([O-])CN1CCN(CC(=O)[O-])CCN(CC(=O)O)CCN(CC(=O)[O-])CC1.[Gd+3]` [Dotarem, Gd-DOTA] yielded a r1 of 4.19 ± 0.014 mM^−ls^−1 and a r2 of 4.75 ± 0.016 mM^−ls^−1.

In data set [1], `CCOc1ccc(CN2CCN(CC(=O)[O-])CCN(C(CCC(=O)[O-])C(=O)[O-])CCN(CC(=O)[O-])CC2)cc1.[Gd+3]` (stereo not shown) [Gd-glu] had a r1 of 8.41 ± 0.084 mM^−ls^−1 and a r2 of 9.92 ± 0.081 mM^−ls^−1. The “contrast enhancing effect in the gall bladder” value with Balb/C mice is reported as “exhibited a contrast enhancing effect in the gall bladder”.

In data set [1], `CNC[C@H](O)[C@@H](O)[C@H](O)[C@H](O)CO.CNC[C@H](O)[C@@H](O)[C@H](O)[C@H](O)CO.O=C([O-])CN(CCN(CC(=O)[O-])CC(=O)O)CCN(CC(=O)[O-])CC(=O)O.[Gd+3]` [Magnevist] came in with a r1 of 3.57 ± 0.007 mM^−ls^−1 and a r2 of 4.95 ± 0.18 mM^−ls^−1.

In data set [1], `CNC[C@H](O)[C@@H](O)[C@H](O)[C@H](O)CO.CNC[C@H](O)[C@@H](O)[C@H](O)[C@H](O)CO.O=C([O-])CN(CCN(CC(=O)[O-])CC(=O)O)CCN(CC(=O)O)C(COCc1ccccc1)C(=O)[O-].[Gd+3]` (stereo not shown) [Multihance] gave a r1 of 5.09 ± 0.015 mM^−ls^−1 and a r2 of 6.79 ± 0.38 mM^−ls^−1. The cytotoxicity entry in the data set with AML12 cell line is reported as “significant cytotoxicity”.

`CNC(=O)CN(CCN(CCN(CC(=O)[O-])CC(=O)NC)CC(=O)[O-])CC(=O)[O-].[Gd+3]` [Omniscan]: in data set [1], the r1 was found to be 3.58 ± 0.014 mM^−ls^−1 and the r2 came out at 4.46 ± 0.024 mM^−ls^−1.

With `CCOc1ccc(CC(CN(CCN(CC(=O)[O-])CC(=O)[O-])CC(=O)[O-])N(CC(=O)[O-])CC(=O)[O-])cc1.[Gd+3].[Na+].[Na+]` (stereo not shown) [Primovist], in data set [1], the r1 worked out at 6.51 ± 0.040 mM^−ls^−1 and the r2 was 7.31 ± 0.42 mM^−ls^−1. Also, the cytotoxicity entry in the data set with AML12 cell line is “significant cytotoxicity”.

`CC(O)CN1CCN(CC(=O)[O-])CCN(CC(=O)[O-])CCN(CC(=O)[O-])CC1.[Gd+3]` (stereo not shown) [Prohance]: in data set [1], the r1 worked out at 3.58 ± 0.017 mM^−ls^−1 and the r2 came to 4.58 ± 0.071 mM^−ls^−1.
